Experimental data as given in US20120226186A1 (priority 2009, published 2012).

Key:
[1] = test system: nociceptive flexor reflexes; details: Willer, 1985; cited from earlier work
[2] = all 20 subjects, i.v. computer-controlled infusion

In the case of `CN1CC[C@]23c4c5ccc(O)c4O[C@H]2[C@@H](O)C=C[C@H]3[C@H]1C5` [morphine], the “reflex threshold of nociceptive flexor reflexes after application of the analgetic” value [1] is listed as “changed in a concentration dependent manner”.
For `CC(C)c1cccc(C(C)C)c1O` [propofol, 2,6-diisopropylphenol], the “median effect compartment concentration at loss of reaction to repeated verbal commands” value ([2]; median) was 4 µg/mL and the “range of effect compartment concentration at loss of reaction to repeated verbal commands” value ([2]; range) was 2 to 5 µg/mL.
